Reference: patent US11472838B2, “Inhibitors of blood coagulation factor XIII” (Zedira GmbH, priority 2018, dated 2022)
Where two headings read alike, the source gives them in different places. *1 amine or outer side, *2 acyl side, *3 side chain or, on linkers, in order; H or OH if unused. Where a SMILES comes first, the peptide text is derived from it. [ ]: non-standard residue; d: D form. The star is where a group is joined. ξ: configuration not given here. Benzoyl(3-COOH,5-NO2) = O=C(O)c1cc(C(=O)*)cc([N+](=O)[O-])c1; Benzoyl(2-COOH,5-NO2) = O=C(O)c1ccc([N+](=O)[O-])cc1C(=O)*; Nle(5E-ene,6-CO2Et) = CCOC(=O)/C=C/CC[C@H](N)C(=O)O; Isonicotinoyl(3-COOH) = O=C(O)c1cnccc1C(=O)*; X1 = COC(=O)/C=C/CC[C@H](N[*:1])C(=O)[*:2]; X5 = CNC(=O)/C=C/CC[C@H](N[*:1])C(=O)[*:2]; Pro(4-methylene) = C=C1CN[C@H](C(=O)O)C1; X2 = O=C(O)c1cc([N+](=O)[O-])ccc1C(=O)*; Pro(4-oxo) = O=C1CN[C@H](C(=O)O)C1; Thiophene2carbonyl = O=C(c1cccs1)*; Ala(cPr) = N[C@@H](CC1CC1)C(=O)O; Ile(3ξ) = CCC(C)[C@H](N)C(=O)O; Thr(3ξ) = CC(O)[C@H](N)C(=O)O; Chg = N[C@H](C(=O)O)C1CCCCC1; Tle = CC(C)(C)[C@H](N)C(=O)O; Pip = O=C(O)[C@@H]1CCCCN1; Nle = CCCC[C@H](N)C(=O)O; NHIsopentyl = CC(C)CCN*; Cbz = O=C(OCc1ccccc1)*

Experiments:
in vitro = details: for half-life / recovery in plasma determined by HPLC: plasma; for recovery in plasma determined by HPLC: 37° C., over a period of 2 hours
Procedure: Further, the stability of compounds in plasma was determined as prerequisite for drug-likeness. Briefly, after spiking the chemical entities, the plasma was incubated at 37° C. At certain time points (e.g. at 15 and 120 minutes), 3 vol. cold MeOH were added to extract the compounds. After centrifugation, the supernatant was analyzed by HPLC. The half life was calculated based on the respective calibration curve.

TG2 = TG2 (Homo sapiens (Human), UniProt P21980); assay: Inhibitory activity against TG2 (isopeptidase assay), Tables 3 and 4; assay type: biochemical; details: for Selectivity: TG2 versus FXIII
Procedure: (§1) FXIIIa activity has been determined using substrate A101 (Zedira GmbH, Darmstadt, Germany), which is based on the N-terminal dodecapeptide of α2-antipiasmin.
(§2) The mixture was incubated for 20 min at room temperature to activate FXIII. […] For measurements without inhibitor, 15 μL of assay buffer/2% (v/v) DMSO were added. All measurements were performed in triplicate. The respective IC50 values were calculated by non-linear regression using the MARS software package (BMG Labtech).

FXIII = FXIII (Homo sapiens (Human), UniProt P00488); assay: Inhibitory activity against FXIII (isopeptidase assay), Tables 3 and 4; assay type: biochemical;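 note: FXIIIa activity read with a peptide substrate derived from the α2-antiplasmin N-terminal dodecapeptide, FXIII activated beforehand at room temperature, inhibitor-free wells with DMSO buffer as control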
Procedure: as §1, §2

[1] = isopeptidase assay, Table 3, read-out: IC50 [nM] TG2
[2] = isopeptidase assay, Table 3, read-out: IC50 [nM] FXIII

Sequence of TG2 (P21980 whole entry): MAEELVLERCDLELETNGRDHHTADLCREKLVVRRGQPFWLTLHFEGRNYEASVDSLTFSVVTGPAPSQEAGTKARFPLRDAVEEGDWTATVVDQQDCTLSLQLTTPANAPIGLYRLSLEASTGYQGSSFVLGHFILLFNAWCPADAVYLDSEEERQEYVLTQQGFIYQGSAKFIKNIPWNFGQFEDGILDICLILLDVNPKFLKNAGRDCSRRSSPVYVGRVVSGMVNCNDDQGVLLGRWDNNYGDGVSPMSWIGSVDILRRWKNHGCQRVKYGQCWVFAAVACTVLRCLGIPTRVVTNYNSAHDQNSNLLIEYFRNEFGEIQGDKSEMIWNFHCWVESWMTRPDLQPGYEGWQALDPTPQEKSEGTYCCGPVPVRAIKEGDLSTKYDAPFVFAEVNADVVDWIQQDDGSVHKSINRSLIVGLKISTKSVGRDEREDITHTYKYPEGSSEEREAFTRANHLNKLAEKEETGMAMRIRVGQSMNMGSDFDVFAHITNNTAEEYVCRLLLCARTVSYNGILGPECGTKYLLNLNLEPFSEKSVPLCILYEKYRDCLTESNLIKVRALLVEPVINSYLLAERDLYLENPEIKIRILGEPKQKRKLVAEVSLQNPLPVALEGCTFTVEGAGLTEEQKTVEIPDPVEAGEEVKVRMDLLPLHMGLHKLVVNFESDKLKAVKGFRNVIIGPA
Sequence of FXIII (P00488 39-732): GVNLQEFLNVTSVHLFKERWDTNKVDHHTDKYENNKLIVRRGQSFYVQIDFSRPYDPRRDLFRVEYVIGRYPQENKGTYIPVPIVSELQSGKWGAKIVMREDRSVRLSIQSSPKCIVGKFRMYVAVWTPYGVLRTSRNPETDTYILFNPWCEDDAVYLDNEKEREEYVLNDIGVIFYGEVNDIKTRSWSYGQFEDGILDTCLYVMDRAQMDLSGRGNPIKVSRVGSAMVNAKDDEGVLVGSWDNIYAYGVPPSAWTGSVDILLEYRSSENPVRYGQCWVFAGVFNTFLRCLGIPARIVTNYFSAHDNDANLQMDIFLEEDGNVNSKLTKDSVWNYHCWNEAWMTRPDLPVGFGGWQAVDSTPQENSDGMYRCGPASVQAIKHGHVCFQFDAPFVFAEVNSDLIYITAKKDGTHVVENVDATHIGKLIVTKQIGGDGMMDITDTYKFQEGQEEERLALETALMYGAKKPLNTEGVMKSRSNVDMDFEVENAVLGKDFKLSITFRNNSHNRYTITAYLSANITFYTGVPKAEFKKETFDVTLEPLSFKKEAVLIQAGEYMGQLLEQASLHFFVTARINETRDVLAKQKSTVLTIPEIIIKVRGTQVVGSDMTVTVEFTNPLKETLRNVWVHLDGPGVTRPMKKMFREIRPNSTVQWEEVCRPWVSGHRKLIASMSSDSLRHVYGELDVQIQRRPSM

SMILES	Selectivity (TG2; Table 4)	IC50 (TG2; Table 4, read-out: TG2 IC50) [nM]	IC50 (FXIII; Table 4, read-out: FXIII IC50) [nM]	also measured
CCCC[C@H](NC(=O)[C@H](CC/C=C/C(=O)OC)NC(=O)[C@@H]1CC(=O)CN1)C(=O)N[C@H](C(=O)N[C@@H](CC(C)C)C(=O)N1CCC[C@H]1C(=O)N[C@@H](Cc1c[nH]c2ccccc12)C(=O)N1CCC[C@H]1C(=O)O)C(C)CC (stereo partly drawn) [Ref. 23, reference compound] (H-[Pro(4-oxo)][X1][Nle][Ile(3ξ)]LPWP-OH)	1.82	102	56	half-life (in vitro): < 15 min
CCOC(=O)/C=C/CC[C@H](NC(=O)c1cc(C(=O)O)cc([N+](=O)[O-])c1)C(=O)N[C@H](C(=O)N1CC(=O)C[C@H]1C(=O)N[C@H](C(=O)NCCC(C)C)C1CCCCC1)C(C)(C)C [Compound 40] ({Benzoyl(3-COOH,5-NO2)}-[Nle(5E-ene,6-CO2Et)][Tle][Pro(4-oxo)][Chg]-NHIsopentyl)	10.47	848	81	recovery at 2 h (in vitro): > 75%
COC(=O)/C=C/CC[C@H](NC(=O)[C@H](CC(N)=O)NC(C)=O)C(=O)N[C@@H](CCC(=O)O)C(=O)N[C@@H](CCC(N)=O)C(=O)N[C@H](C(=O)N[C@@H](CO)C(=O)N1CCC[C@H]1C(=O)N[C@@H](CC(C)C)C(=O)O)C(C)C [Ref. 21, reference compound] (Ac-N[X1]EQVSPL-OH)	–	421	> 10	–
COC(=O)/C=C/CC[C@H](NC(=O)c1ccncc1C(=O)O)C(=O)N[C@@H](CCSC)C(=O)N1CC(=O)C[C@H]1C(=O)N[C@H](C(=O)N[C@H](C(N)=O)C1CCCCC1)C1CCCCC1 [37a/b] ({Isonicotinoyl(3-COOH)}-[X1]M[Pro(4-oxo)][Chg][Chg]-NH2)	–	–	–	recovery in plasma determined by HPLC (in vitro): > 75%; Selectivity (TG2; isopeptidase assay, Table 3): 4.7; IC50 (TG2; [1]): 324 nM; IC50 (FXIII; [2]): 69 nM
CCCC[C@H](NC(=O)[C@H](CC/C=C/C(=O)OC)NC(=O)[C@@H](CC(=O)O)NC(C)=O)C(=O)N[C@@H](CCCC)C(=O)N[C@@H](CC(C)C)C(=O)N1CCC[C@H]1C(=O)O [Ref. 14, reference compound] (Ac-[dD][X1][Nle][Nle]LP-OH)	–	2150	> 10	half-life (in vitro): < 15 min
C=C1C[C@@H](C(=O)N[C@@H](CC(C)C)C(=O)N[C@H](C(N)=O)C2CCCCC2)N(C(=O)[C@@H](NC(=O)[C@H](CC/C=C/C(=O)OCC)NC(=O)c2ccc([N+](=O)[O-])cc2C(=O)O)C(C)(C)C)C1 [Compound 42a] (X2-[Nle(5E-ene,6-CO2Et)][Tle][Pro(4-methylene)]L[Chg]-NH2)	–	–	–	recovery at 2 h (in vitro): > 75%
COC(=O)/C=C/CC[C@H](NC(=O)c1ccncc1C(=O)O)C(=O)N[C@H](C(=O)N1CC(=O)C[C@H]1C(=O)N[C@H](C(=O)N[C@H](C(=O)O)C1CCCCC1)C1CCCCC1)C(C)(C)C [34a/b] ({Isonicotinoyl(3-COOH)}-[X1][Tle][Pro(4-oxo)][Chg][Chg]-OH)	–	–	–	recovery in plasma determined by HPLC (in vitro): > 75%; Selectivity (TG2; isopeptidase assay, Table 3): 2.7; IC50 (TG2; [1]): 356 nM; IC50 (FXIII; [2]): 123 nM
CCOC(=O)/C=C/CC[C@H](NC(=O)OCc1ccccc1)C(=O)N[C@H](C(=O)N1CCC[C@H]1C(=O)N[C@H](C(=O)NCCC(C)C)C1CCCCC1)C(C)C [Ref. 10, reference compound] (Cbz-[Nle(5E-ene,6-CO2Et)]VP[Chg]-NHIsopentyl)	0.02	176	8180	–
CCOC(=O)/C=C/CC[C@H](NC(=O)OCc1ccccc1)C(=O)N[C@H](C(=O)N1CCCC[C@H]1C(=O)N[C@@H](CC(C)C)C(=O)OC)C(C)C [Ref. 6, reference compound] (Cbz-[Nle(5E-ene,6-CO2Et)]V[Pip]L-OMe)	–	–	–	IC50 (TG2; [1]): 48 nM; IC50 (FXIII; [2]): > 10000 nM
COC(=O)/C=C/CC[C@H](NC(=O)c1cc(C(=O)O)cc([N+](=O)[O-])c1)C(=O)N[C@H](C(=O)N1CC(=O)C[C@H]1C(=O)N[C@H](C(=O)N[C@H](C(N)=O)C1CCCCC1)C1CCCCC1)C(C)(C)C [Compound 4] ({Benzoyl(3-COOH,5-NO2)}-[X1][Tle][Pro(4-oxo)][Chg][Chg]-NH2)	–	–	–	recovery at 2 h (in vitro): > 75%; Selectivity (TG2; isopeptidase assay, Table 3): 1.1; IC50 (TG2; [1]): 14 nM; IC50 (FXIII; [2]): 13 nM
CCC(CC)CNC(=O)Cn1cccc(NC(=O)[C@H](CC/C=C/C(=O)OC)NC(=O)c2cncn2C)c1=O [Ref. 25]	–	–	> 10	–
COC(=O)/C=C/CC[C@H](NC(=O)[C@H](CC(N)=O)NC(C)=O)C(=O)N[C@@H](CCC(=O)O)C(=O)N[C@@H](CCC(N)=O)C(=O)N[C@H](C(=O)N[C@@H](CO)C(=O)N1CCC[C@H]1C(=O)N[C@@H](CC(C)C)C(=O)N[C@H](C(=O)N[C@@H](CC(C)C)C(=O)O)C(C)O)C(C)C (stereo partly drawn) [Ref. 19, reference compound] (Ac-N[X1]EQVSPL[Thr(3ξ)]L-OH)	0.07	370	4980	–
CNC(=O)/C=C/CC[C@H](NC(=O)c1ccncc1C(=O)O)C(=O)N[C@H](C(=O)N1CC(=O)C[C@H]1C(=O)N[C@H](C(=O)N[C@H](C(N)=O)C1CCCCC1)C1CCCCC1)C(C)(C)C [17a/b] ({Isonicotinoyl(3-COOH)}-[X5][Tle][Pro(4-oxo)][Chg][Chg]-NH2)	–	–	–	recovery in plasma determined by HPLC (in vitro): > 75%; Selectivity (TG2; isopeptidase assay, Table 3): 7.2; IC50 (TG2; [1]): 295 nM; IC50 (FXIII; [2]): 41 nM
COC(=O)/C=C/CC[C@H](NC(=O)[C@H](CC(N)=O)NC(C)=O)C(=O)N[C@@H](CCC(=O)O)C(=O)N[C@@H](CCC(N)=O)C(=O)N[C@H](C(=O)N[C@@H](CO)C(=O)N1CCC[C@H]1C(=O)N[C@@H](CC(C)C)C(=O)N[C@H](C(=O)N[C@@H](CC(C)C)C(=O)N[C@@H](CC(C)C)C(=O)O)C(C)O)C(C)C (stereo partly drawn) [Ref. 18, reference compound] (Ac-N[X1]EQVSPL[Thr(3ξ)]LL-OH)	0.34	341	995	half-life (in vitro): < 15 min
CCCC[C@H](NC(=O)[C@H](CC/C=C/C(=O)OC)NC(=O)[C@@H]1CC(=O)CN1)C(=O)N[C@H](C(=O)N[C@@H](CC(C)C)C(=O)N1CCC[C@H]1C(=O)N[C@@H](Cc1c[nH]c2ccccc12)C(=O)O)C(C)CC (stereo partly drawn) [Ref. 15, reference compound] (H-[Pro(4-oxo)][X1][Nle][Ile(3ξ)]LPW-OH)	0.52	117	226	half-life (in vitro): < 15 min
CCOC(=O)/C=C/CC[C@H](NC(=O)c1cccs1)C(=O)N[C@@H](CCC(N)=O)C(=O)N1CCC[C@H]1C(=O)N[C@@H](CC(C)C)C(=O)N[C@H](C(N)=O)C1CCCCC1 [Ref. 11, reference compound] (Thiophene2carbonyl-[Nle(5E-ene,6-CO2Et)]QPL[Chg]-NH2)	0.05	253	5360	–
CCOC(=O)/C=C/CC[C@H](NC(=O)OCc1ccccc1)C(=O)N[C@@H](CCC(N)=O)C(=O)N1CCC[C@H]1C(=O)N[C@@H](CC(C)C)C(=O)N[C@H](C(N)=O)C1CCCCC1 [Ref. 09, reference compound] (Cbz-[Nle(5E-ene,6-CO2Et)]QPL[Chg]-NH2)	–	26	5690	–
COC(=O)/C=C/CC[C@H](NC(=O)[C@H](CC(N)=O)NC(C)=O)C(=O)N[C@@H](CCC(=O)O)C(=O)N[C@@H](CCC(N)=O)C(=O)N[C@H](C(=O)N[C@@H](CO)C(=O)N1CCC[C@H]1C(=O)N[C@@H](CC(C)C)C(=O)N[C@H](C(=O)O)C(C)O)C(C)C (stereo partly drawn) [Ref. 20, reference compound] (Ac-N[X1]EQVSPL[Thr(3ξ)]-OH)	0.04	381	8480	–
CCOC(=O)/C=C/CC[C@H](NC(=O)OCc1ccccc1)C(=O)N[C@H](C(=O)N1CCC[C@H]1C(=O)N[C@@H](CC(C)C)C(=O)N[C@H](C(N)=O)C1CCCCC1)C1CCCCC1 [Ref. 12, reference compound] (Cbz-[Nle(5E-ene,6-CO2Et)][Chg]PL[Chg]-NH2)	0.05	345	6770	–
CCOC(=O)/C=C/CC[C@H](NC(=O)OCc1ccccc1)C(=O)N[C@H](C(=O)N1CCC[C@H]1C(=O)N[C@@H](CC(C)C)C(=O)N[C@H](C(N)=O)C1CCCCC1)C(C)C [Ref. 08, reference compound] (Cbz-[Nle(5E-ene,6-CO2Et)]VPL[Chg]-NH2)	0.01	36	3650	–
C=C1C[C@@H](C(=O)N[C@@H](CC(C)C)C(=O)N[C@H](C(N)=O)C2CCCCC2)N(C(=O)[C@@H](NC(=O)[C@H](CC/C=C/C(=O)OCC)NC(=O)c2cc([N+](=O)[O-])ccc2C(=O)O)C(C)(C)C)C1 [Compound 42b] ({Benzoyl(2-COOH,5-NO2)}-[Nle(5E-ene,6-CO2Et)][Tle][Pro(4-methylene)]L[Chg]-NH2)	–	–	–	recovery at 2 h (in vitro): > 75%
CCOC(=O)/C=C/CC[C@H](NC(=O)c1cccs1)C(=O)N[C@@H](CC1CC1)C(=O)N1CCC[C@H]1C(=O)N[C@@H](CC(C)C)C(=O)N[C@H](C(N)=O)C1CCCCC1 [Compound 41] (Thiophene2carbonyl-[Nle(5E-ene,6-CO2Et)][Ala(cPr)]PL[Chg]-NH2)	–	–	–	recovery at 2 h (in vitro): > 75%
